Measured values reported in patent US20230416205A1, “COMPOUNDS, COMPOSITIONS, AND METHODS” (Denali Therapeutics Inc, priority 2020, published 2023).
pIC50: −log10 of the molar value. Like-named read-outs stand apart in the source and are kept apart here.

Test system: NLRP3
Assay: IL-1β secretion assay in PMA-differentiated, LPS/nigericin-stimulated THP-1 cells (384-well, ELISA read-out)
Assay type: cell-based, human
Procedure, shortened: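 Secreted IL-1β quantified by capture ELISA from supernatants of PMA-differentiated THP-1 cells (30K per well). Sequence: LPS 25 ng/mL priming 2 h, compound 1 h, nigericin 2 h; dose-responses normalized between high (LPS plus 5 μM nigericin) and low (LPS alone) controls.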

[1] = Homo sapiens, THP-1, IL-1β secretion, PMA-differentiated THP-1 cells, LPS then nigericin stimulation, ELISA read at 450 nm, read-out: Activity
[2] = Homo sapiens, THP-1, Table 4, IL-1β secretion, LPS/nigericin-stimulated THP-1 cells, read-out: IC50

SMILES | pIC50 [1] | pIC50 [2] | pIC50 (IL-1β secretion, PMA-differentiated THP-1 cells, LPS then nigericin stimulation, ELISA read at 450 nm, read-out: Activity) | pIC50 (Table 4, IL-1β secretion, LPS/nigericin-stimulated THP-1 cells, read-out: IC50)
O=C(CN1CC2(CC2)c2cc(Br)ccc2C1=O)Nc1ccc(Cl)nn1 [Example 10] | > 5.00 | 5.89 | – | –
O=C(CN1CC2(CC2)c2cc(Br)ccc2C1=O)Nc1ccncc1F [Example 11] | > 5.00 | 6.27 | – | –
O=C(CN1CC2(CC2)c2cc(Br)ccc2C1=O)Nc1ncc(F)cc1F [Example 12] | > 5.00 | 6.23 | – | –
O=C(CN1CC2(CC2)c2cc(Br)ccc2C1=O)NC12CC(C(F)(F)F)(C1)C2 [Example 13, 2-(6-bromo-1-oxospiro[3H-isoquinoline-4,1′-cyclopropane]-2-yl)-N-[3-(trifluoromethyl)-1-bicyclo[1.1.1]pentanyl]acetamide] | > 5.00 | 5.76 | – | –
N#CC12CC(NC(=O)CN3CC4(CC4)c4cc(Br)ccc4C3=O)(C1)C2 [Example 14, 2-(6-bromo-1-oxospiro[3H-isoquinoline-4,1′-cyclopropane]-2-yl)-N-(3-cyano-1-bicyclo[1.1.1]pentanyl)acetamide] | > 5.00 | 5.51 | – | –
O=C(CN1CC2(CC2)c2cc(Br)ccc2C1=O)NC1CCC(F)(F)CC1 [Example 15, 2-(6-bromo-1-oxospiro[3H-isoquinoline-4,1′-cyclopropane]-2-yl)-N-(4,4-difluorocyclohexyl)acetamide] | > 5.00 | 5.50 | – | –
O=C(CN1CC2(CC2)c2cc(Br)ccc2C1=O)N[C@@H]1C[C@@H]2CC[C@H]1O2 [Example 16, 2-(6-bromo-1-oxospiro[3H-isoquinoline-4,1′-cyclopropane]-2-yl)-N-[(1R,2R,4S)-7-oxabicyclo[2.2.1]heptan-2-yl]acetamide] | > 5.00 | 5.01 | – | –
CCN1CCCC(NC(=O)CN2CC3(CC3)c3cc(Br)ccc3C2=O)C1 (stereo not shown) [Example 18, 2-(6-bromo-1-oxospiro[3H-isoquinoline-4,1′-cyclopropane]-2-yl)-N-(1-ethylpiperidin-3-yl)acetamide] | > 5.00 | 5.84 | – | –
C[C@]1(O)C[C@@H](NC(=O)CN2CC3(CC3)c3cc(Br)ccc3C2=O)C1 [Example 19, 2-(6-bromo-1-oxospiro[3H-isoquinoline-4,1′-cyclopropane]-2-yl)-N-(cis-3-hydroxy-3-methylcyclobutyl)acetamide] | > 5.00 | 6.82 | – | –
O=C(CN1CC2(CC2)c2cc(Br)ccc2C1=O)NC1CCn2nccc2C1 (stereo not shown) [Example 20] | > 5.00 | 5.50 | – | –
CN1CC(NC(=O)CN2CC3(CC3)c3cc(Br)ccc3C2=O)CCC1=O (stereo not shown) [Example 21, 2-(6-bromo-1-oxo-spiro[3H-isoquinoline-4,1′-cyclopropane]-2-yl)-N-(1-methyl-6-oxo-3-piperidyl)acetamide] | > 5.00 | 5.21 | – | –
CN1CCC(NC(=O)CN2CC3(CC3)c3cc(Br)ccc3C2=O)CC1=O (stereo not shown) [Example 22, 2-(6-bromo-1-oxo-spiro[3H-isoquinoline-4,1′-cyclopropane]-2-yl)-N-(1-methyl-2-oxo-4-piperidyl)acetamide] | 4.82 to 5.00 | 4.96 | – | –
O=C(CN1CC2(CC2)c2cc(Br)ccc2C1=O)NC1CC2(CC2)C1 [Example 23, 2-(6-bromo-1-oxo-spiro[3H-isoquinoline-4,1′-cyclopropane]-2-yl)-N-spiro[2.3]hexan-5-yl-acetamide] | > 5.00 | 5.73 | – | –
O=C(CN1CC2(CC2)c2cc(Br)ccc2C1=O)NC1CCOC(C2CC2)C1 (stereo not shown) [Example 24, 2-(6-bromo-1-oxo-spiro[3H-isoquinoline-4,1′-cyclopropane]-2-yl)-N-(2-cyclopropyltetrahydropyran-4-yl)acetamide] | > 5.00 | 5.14 | – | –
COCCN1CCCC(NC(=O)CN2CC3(CC3)c3cc(Br)ccc3C2=O)C1 (stereo not shown) [Example 25, 2-(6-bromo-1-oxo-spiro[3H-isoquinoline-4,1′-cyclopropane]-2-yl)-N-[1-(2-methoxyethyl)-3-piperidyl]acetamide] | > 5.00 | 5.45 | – | –
CC1(C)CN(CC(=O)N[C@@H]2CCCN(C3CCC3)C2)C(=O)c2ccc(Br)cc21 [Example 26, (R)-2-(6-bromo-4,4-dimethyl-1-oxo-3,4-dihydroisoquinolin-2(1H)-yl)-N-(1-cyclobutylpiperidin-3-yl)acetamide] | > 5.00 | 6.35 | – | –
O=C(CN1CC2(CC2)c2cc(C(F)(F)F)ccc2C1=O)Nc1ncccn1 [Example 27, 2-[1-oxo-6-(trifluoromethyl)spiro[3H-isoquinoline-4,1′-cyclopropane]-2-yl]-N-pyrimidin-2-yl-acetamide] | > 5.00 | 6.54 | – | –
O=C(CN1CC2(CC2)c2cc(C(F)(F)F)ccc2C1=O)Nc1ncc(F)cn1 [Example 28] | > 5.00 | 6.43 | – | –

SMILES | pIC50 [1] | pIC50 [2] | pIC50 (IL-1β secretion, PMA-differentiated THP-1 cells, LPS then nigericin stimulation, ELISA read at 450 nm, read-out: Activity) | pIC50 (Table 4, IL-1β secretion, LPS/nigericin-stimulated THP-1 cells, read-out: IC50)
CC1CC12CN(CC(=O)Nc1ncccn1)C(=O)c1ccc(C(F)(F)F)cc12 (stereo not shown) [Example 29, 2-[2′-methyl-1-oxo-6-(trifluoromethyl)spiro[3H-isoquinoline-4,1′-cyclopropane]-2-yl]-N-pyrimidin-2-yl-acetamide] | > 5.00 | 6.41 | – | –
CCC1(C)CN(CC(=O)Nc2ncccn2)C(=O)c2ccc(C(F)(F)F)cc21 (stereo not shown) [Example 30, 2-[4-ethyl-4-methyl-1-oxo-6-(trifluoromethyl)-3H-isoquinolin-2-yl]-N-pyrimidin-2-ylacetamide] | < 4.82 | 4.82 | – | –
O=C(CN1CC2(CC2)c2nc(C(F)(F)F)ccc2C1=O)Nc1ncccn1 [Example 31, 2-[5-oxo-2-(trifluoromethyl)spiro[7H-1,6-naphthyridine-8,1′-cyclopropane]-6-yl]-N-pyrimidin-2-ylacetamide] | > 5.00 | 5.62 | – | –
O=C(CN1CC2(CCC2)c2cc(Br)ccc2C1=O)Nc1ncccn1 [Example 32, 2-(6-bromo-1-oxo-spiro[3H-isoquinoline-4,1′-cyclobutane]-2-yl)-N-pyrimidin-2-yl-acetamide] | > 5.00 | 5.71 | – | –
O=C(CN1CC2(CC2)c2cc(OC(F)F)ccc2C1=O)Nc1ncccn1 [Example 33, N-(pyrimidin-2-yl)-2-[6-(difluoromethoxy)-1-oxospiro[3H-isoquinoline-4,1′-cyclopropane]-2-yl]acetamide] | > 5.00 | 5.89 | – | –
O=C(CN1CC2(CC2)c2cc(C3CC3)ccc2C1=O)Nc1ncc(Cl)cn1 [Example 34, N-(5-chloropyrimidin-2-yl)-2-(6-cyclopropyl-1-oxo-spiro[3H-isoquinoline-4,1′-cyclopropane]-2-yl)acetamide] | > 5.00 | 6.86 | – | –
O=C(CN1CC2(CC2)c2c(ccc(C(F)(F)F)c2F)C1=O)Nc1ncc(F)cn1 [Example 35, 2-[5-fluoro-1-oxo-6-(trifluoromethyl)spiro[3H-isoquinoline-4,1′-cyclopropane]-2-yl]-N-(5-fluoropyrimidin-2-yl)acetamide] | > 5.00 | 6.44 | – | –
O=C(CN1CC2(CC2)c2cc(Br)ccc2C1=O)Nc1ccc(OC(F)F)cn1 [Example 36, 2-(6-bromo-1-oxo-spiro[3H-isoquinoline-4,1′-cyclopropane]-2-yl)-N-[5-(difluoromethoxy)-2-pyridyl]acetamide] | > 5.00 | 5.57 | – | –
O=Cc1cnc(NC(=O)CN2CC3(CC3)c3cc(Br)ccc3C2=O)c(F)c1 [Example 37, 2-(6-bromo-1-oxo-spiro[3H-isoquinoline-4,1′-cyclopropane]-2-yl)-N-(3-fluoro-5-formyl-2-pyridyl)acetamide] | > 5.00 | 5.88 | – | –
O=C(CN1CC2(CC2)c2cc(Br)ccc2C1=O)Nc1ncc(F)cc1F [Example 38, 2-(6-bromo-1-oxo-spiro[3H-isoquinoline-4,1′-cyclopropane]-2-yl)-N-(3,5-difluoro-2-pyridyl)acetamide] | – | – | > 5.00 | 6.35
O=C(CN1CC2(CC2)c2c(ccc(Br)c2F)C1=O)Nc1ncccn1 [Example 39, 2-(6-bromo-5-fluoro-1-oxo-spiro[3H-isoquinoline-4,1′-cyclopropane]-2-yl)-N-(pyrimidin-2-yl)acetamide] | > 5.00 | 7.05 | – | –
O=C(CN1CC2(CC2)c2c(F)cccc2C1=O)Nc1ncccn1 [Example 40, 2-(5-fluoro-1-oxo-spiro[3H-isoquinoline-4,1′-cyclopropane]-2-yl)-N-(pyrimidin-2-yl)acetamide] | > 5.00 | 5.06 | – | –
O=C(CN1CC2(CC2)c2c(ccc(Br)c2F)C1=O)Nc1ncc(F)cn1 [Example 41, 2-(6-bromo-5-fluoro-1-oxo-spiro[3H-isoquinoline-4,1′-cyclopropane]-2-yl)-N-(5-fluoropyrimidin-2-yl)acetamide] | > 5.00 | 7.17 | – | –
O=C(CN1CC2(CC2)c2c(F)cccc2C1=O)Nc1ncc(F)cn1 [Example 42, 2-(5-fluoro-1-oxo-spiro[3H-isoquinoline-4,1′-cyclopropane]-2-yl)-N-(5-fluoropyrimidin-2-yl)acetamide] | > 5.00 | 5.28 | – | –
O=C(CN1CC2(CC2)c2cc(Br)ccc2C1=O)Nc1ccc2cn[nH]c2c1 [Example 43, 2-(6-bromo-1-oxo-spiro[3H-isoquinoline-4,1′-cyclopropane]-2-yl)-N-(1H-indazol-6-yl)acetamide] | > 5.00 | 6.43 | – | –
O=C(CN1CC2(CC2)c2cc(Br)ccc2C1=O)Nc1ccc2cc[nH]c2c1 [Example 44, 2-(6-bromo-1-oxospiro[3H-isoquinoline-4,1′-cyclopropane]-2-yl)-N-(1H-indol-6-yl)acetamide] | > 5.00 | 5.90 | – | –
O=C(CN1CC2(CC2)c2cc(Br)ccc2C1=O)NC1CCc2cn[nH]c2C1 (stereo not shown) [Example 45, 2-(6-bromo-1-oxospiro[3H-isoquinoline-4,1′-cyclopropane]-2-yl)-N-(4,5,6,7-tetrahydro-1H-indazol-6-yl)acetamide] | > 5.00 | 5.20 | – | –
